Literature values as cited in publication PMC7582876, “Antiproliferative Properties of a Few Auranofin-Related Gold(I) and Silver(I) Complexes in Leukemia Cells and their Interferences with the Ubiquitin Proteasome System” (Molecules, 2020).

System: CEM/ADR5000 cells
Set-up: method as in PMID 18413831
Conditions: ref [27]; cited from earlier work

## COc1cccc2c1C(=O)c1c(O)c3c(c(O)c1C2=O)C[C@@](O)(C(=O)CO)C[C@@H]3O[C@H]1C[C@H](N)[C@H](O)[C@H](C)O1 [doxorubicin, Doxorubicin]
  resistance to doxorubicin: more than 1000 fold
